In brackets after ≈: the same amount, converted by molar mass. Activity calls are given as the source filed them. The rule behind the calls is not given here.
Key:
[1] = target: Serine/threonine-protein kinase PLK2 (Homo sapiens, UniProt Q9NYY3); test: Inhibition of PLK2 assessed as [33P]gamma-ATP incorporation into substrate after 60 mins by gamma counting
A2780 = test: Antiproliferative activity against human A2780 cells
[2] = Solubility of compound at pH 7; assay type: physicochemical; conditions: buffer
[3] = Half life in overnight fasted CD1 nu/nu mouse at 10 mg/kg, iv; assay type: ADME, organism-based; design: dose 10 mg/kg, route intravenous; conditions: in vivo
[4] = Clearance in overnight fasted CD1 nu/nu mouse at 10 mg/kg, iv; assay type: ADME, organism-based; design: dose 10 mg/kg, route intravenous; conditions: in vivo
[5] = AUC (infinity) in overnight fasted CD1 nu/nu mouse at 10 mg/kg, iv; assay type: ADME, organism-based; design: time infinity, dose 10 mg/kg, route intravenous; conditions: plasma
[6] = Half life in overnight fasted CD1 nu/nu mouse at 10 mg/kg, po; assay type: ADME, organism-based; design: dose 10 mg/kg, route oral; conditions: in vivo
[7] = Oral bioavailability in overnight fasted CD1 nu/nu mouse at 10 mg/kg; assay type: ADME, organism-based; conditions: in vivo
[8] = Volume of distribution at steady state in overnight fasted CD1 nu/nu mouse at 10 mg/kg, iv; assay type: ADME, organism-based; design: dose 10 mg/kg, route intravenous; conditions: in vivo, read-out: Vdss
[9] = Cmax in overnight fasted CD1 nu/nu mouse at 10 mg/kg, po; assay type: ADME, organism-based; design: dose 10 mg/kg, route oral; conditions: in vivo
[10] = AUC (infinity) in overnight fasted CD1 nu/nu mouse at 10 mg/kg, po; assay type: ADME, organism-based; design: time infinity, dose 10 mg/kg, route oral; conditions: plasma
[11] = Apparent permeability of the compound by PAMPA assay; assay type: ADME
[12] = Solubility of compound in 10% Tween 80; assay type: physicochemical
[13] = Intrinsic clearance in rat hepatocytes at 1 uM; assay type: ADME, cell-based, Liver, Hepatocyte
[14] = Intrinsic clearance in human liver microsomes at 1 uM; assay type: ADME, Microsome
Caco-2 = test: Apparent permeability of the compound across human Caco2 cells; assay type: ADME, cell-based
CAL-51 = test: Cell cycle arrest in human CAL51 cells at 0.1 to 1 uM after 24 hrs by flow cytometry; assay type: functional, cell-based
[15] = target: Serine/threonine-protein kinase PLK3 (Homo sapiens, UniProt Q9H4B4); test: Inhibition of PLK3 assessed as [33P]gamma-ATP incorporation into substrate after 60 mins by gamma counting
Sequence of Serine/threonine-protein kinase PLK3 (Q9H4B4 whole entry): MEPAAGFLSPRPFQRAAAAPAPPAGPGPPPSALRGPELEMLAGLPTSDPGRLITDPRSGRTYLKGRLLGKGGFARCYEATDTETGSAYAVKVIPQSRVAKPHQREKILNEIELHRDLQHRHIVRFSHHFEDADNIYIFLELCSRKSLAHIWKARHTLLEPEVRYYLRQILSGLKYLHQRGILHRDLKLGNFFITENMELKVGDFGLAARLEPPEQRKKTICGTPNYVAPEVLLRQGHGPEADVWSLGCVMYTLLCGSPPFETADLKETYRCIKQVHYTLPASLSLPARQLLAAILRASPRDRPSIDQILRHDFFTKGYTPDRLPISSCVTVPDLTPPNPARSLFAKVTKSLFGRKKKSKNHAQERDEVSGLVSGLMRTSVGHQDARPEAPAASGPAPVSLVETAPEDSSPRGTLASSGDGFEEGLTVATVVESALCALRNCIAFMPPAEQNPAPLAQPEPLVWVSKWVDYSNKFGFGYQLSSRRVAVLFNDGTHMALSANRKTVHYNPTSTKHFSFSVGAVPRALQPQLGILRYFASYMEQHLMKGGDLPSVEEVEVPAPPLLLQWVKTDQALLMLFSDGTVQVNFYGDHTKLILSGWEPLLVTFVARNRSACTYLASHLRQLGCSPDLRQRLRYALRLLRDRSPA

[16] = target: Serine/threonine-protein kinase PLK1 (Homo sapiens, UniProt P53350); test: Inhibition of PLK1 assessed as [33P]gamma-ATP incorporation into substrate after 60 mins by gamma counting
Sequence of Serine/threonine-protein kinase PLK1 (P53350 whole entry): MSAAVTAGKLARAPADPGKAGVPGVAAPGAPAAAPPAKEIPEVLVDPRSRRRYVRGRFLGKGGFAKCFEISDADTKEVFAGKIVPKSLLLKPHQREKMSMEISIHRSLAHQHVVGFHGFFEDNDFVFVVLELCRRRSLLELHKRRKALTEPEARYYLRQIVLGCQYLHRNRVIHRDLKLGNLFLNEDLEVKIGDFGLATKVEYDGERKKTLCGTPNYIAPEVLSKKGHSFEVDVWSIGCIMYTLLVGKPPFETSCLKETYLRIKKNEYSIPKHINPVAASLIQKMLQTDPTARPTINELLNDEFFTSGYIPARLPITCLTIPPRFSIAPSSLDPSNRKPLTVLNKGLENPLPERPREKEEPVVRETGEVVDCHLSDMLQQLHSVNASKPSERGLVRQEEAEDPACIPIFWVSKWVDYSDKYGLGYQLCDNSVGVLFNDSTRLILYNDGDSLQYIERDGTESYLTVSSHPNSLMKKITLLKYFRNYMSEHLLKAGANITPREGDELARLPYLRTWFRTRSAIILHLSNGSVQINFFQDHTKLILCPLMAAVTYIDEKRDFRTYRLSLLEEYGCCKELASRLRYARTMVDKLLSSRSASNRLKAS

Mus musculus [17] = test: Toxicity in CD1 nu/nu mouse xenografted with human HCT116 cells assessed as reversible body weight loss at 90 mg/kg, po once daily administered on days 1 to 2 in weekly scheduling for 4 cycles measured on day 15; conditions: in vivo
Mus musculus [18] = test: Toxicity in CD1 nu/nu mouse xenografted with human HCT116 cells assessed as reversible body weight loss at 30 mg/kg, iv BID administered on days 1 to 2 in weekly scheduling for 3 cycles measured on day 30; assay type: organism-based, HCT-116; design: dose 30 mg/kg, route intravenous; conditions: in vivo
HCT-116 = test: Antitumor activity against human HCT116 cells xenografted in CD1 nu/nu mouse assessed as tumor growth inhibition at 90 mg/kg, po once daily administered on days 1 to 2 daily in weekly scheduling for 4 cycles measured on day 18; conditions: HCT-116, po, 432 h, read-out: TGI

Sequence of Serine/threonine-protein kinase PLK2 (Q9NYY3 whole entry): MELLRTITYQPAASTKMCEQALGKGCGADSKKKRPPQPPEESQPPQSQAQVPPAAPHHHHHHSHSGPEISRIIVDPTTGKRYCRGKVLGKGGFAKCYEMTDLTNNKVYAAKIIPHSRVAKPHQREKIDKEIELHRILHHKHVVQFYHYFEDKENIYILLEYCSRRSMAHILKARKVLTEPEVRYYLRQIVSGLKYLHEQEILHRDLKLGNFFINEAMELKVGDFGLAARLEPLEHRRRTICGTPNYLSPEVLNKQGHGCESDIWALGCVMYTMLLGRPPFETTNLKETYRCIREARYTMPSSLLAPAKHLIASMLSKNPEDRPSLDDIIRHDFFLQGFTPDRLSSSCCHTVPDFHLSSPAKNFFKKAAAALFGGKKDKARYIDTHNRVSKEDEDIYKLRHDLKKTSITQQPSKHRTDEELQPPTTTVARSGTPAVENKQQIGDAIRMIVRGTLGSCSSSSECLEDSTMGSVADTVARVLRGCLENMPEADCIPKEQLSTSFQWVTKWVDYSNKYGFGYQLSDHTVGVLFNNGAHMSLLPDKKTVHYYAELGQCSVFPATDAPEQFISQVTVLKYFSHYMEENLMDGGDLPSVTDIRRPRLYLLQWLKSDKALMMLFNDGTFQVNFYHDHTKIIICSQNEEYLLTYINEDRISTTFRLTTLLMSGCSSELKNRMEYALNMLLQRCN

## CN1CCC(C(=O)Nc2ccc(OC(F)(F)F)c(Nc3ncc4c(n3)-c3c(c(C(N)=O)nn3C)CC4)c2)CC1
[1]
  IC50: 1500 nM
A2780
  IC50: 1350 nM
[2]
  solubility: 33 µM (≈ 18 µg/mL)

## CN1CCN(c2ccc(OC(F)(F)F)c(Nc3ncc4c(n3)-c3c(c(C(N)=O)nn3C)CC4)c2)[C@H](CO)C1
[1]
  IC50: 1490 nM
A2780
  IC50: 1620 nM
[2]
  solubility: 166 µM (≈ 88.4 µg/mL)

## CN1CCN(c2ccc(OC(F)(F)F)c(Nc3ncc4c(n3)-c3c(c(C(N)=O)nn3CCO)CC4)c2)CC1.Cl
[3]
  half-life: 0.89 h
[4]
  clearance: 39.3 mL/min/kg
[5]
  AUC(0-inf): 8.57 µM·h
[6]
  half-life: 1.6 h
[7]
  bioavailability: 24%
[8]
  Vd: 1.71 L/kg
[9]
  Cmax: 640 nM
[10]
  AUC(0-inf): 2.04 µM·h

## CN1CC=C(c2ccc(OC(F)(F)F)c(Nc3ncc4c(n3)-c3c(c(C(N)=O)nn3C)CC4)c2)CC1
[11]
  Papp: 46.4 ×10⁻⁶ cm/s
[1]
  IC50: 2250 nM
[12]
  solubility: 3700 µg/mL (≈ 7.41 mM)
[13]
  CLint scaled at 1 µM: 638 mL/min/kg
A2780
  IC50: 34 nM
[2]
  solubility: 148 µM (≈ 73.9 µg/mL)
[14]
  CLint scaled at 1 µM: 24.5 mL/min/kg
Caco-2
  Papp: permeable

## Cn1nc(C(N)=O)c2c1-c1nc(Nc3cc(NC(=O)[C@@H]4CCCN4)ccc3OC(F)(F)F)ncc1CC2
[1]
  IC50: 1450 nM
A2780
  IC50: 348 nM
[2]
  solubility: 79 µM (≈ 40.8 µg/mL)

## CN1CCN(c2ccc(OC(F)(F)F)c(Nc3ncc4c(n3)-c3c(c(C(N)=O)nn3CCO)CC4)c2)CC1
CAL-51
  Activity: Active

## CCN(CC)CCN(C)c1ccc(OC(F)(F)F)c(Nc2ncc3c(n2)-c2c(c(C(N)=O)nn2C)CC3)c1
[1]
  IC50: > 10000 nM
[15]
  IC50: > 10000 nM
A2780
  IC50: 1140 nM
[2]
  solubility: 162 µM (≈ 86.3 µg/mL)
[16]
  IC50: 60 nM

## CN(C)CCCn1nc(C(N)=O)c2c1-c1nc(Nc3cc(N4CCN(C)CC4)ccc3OC(F)(F)F)ncc1CC2
[1]
  IC50: > 10000 nM
[15]
  IC50: > 10000 nM
A2780
  IC50: 2500 nM
[2]
  solubility: 200 µM (≈ 115 µg/mL)
[16]
  IC50: 279 nM

## CN1CCN(c2ccc(OC(F)(F)F)c(Nc3ncc4c(n3)-c3c(c(C(N)=O)nn3CCN)CC4)c2)CC1
[11]
  Papp: 5 ×10⁻⁶ cm/s
[1]
  IC50: > 10000 nM
[15]
  IC50: > 10000 nM
A2780
  IC50: 1310 nM
[2]
  solubility: 202 µM (≈ 107 µg/mL)
[16]
  IC50: 33 nM

## CN1CCN(c2ccc(OC(F)(F)F)c(Nc3ncc4c(n3)-c3c(c(C(N)=O)nn3C)CC4)c2)CC1
Mus musculus [17]
  Activity: 14%
[13]
  CLint scaled at 1 µM: 600 mL/min/kg
Mus musculus [18]
  Activity: 14%
Caco-2
  Papp: permeable
HCT-116
  inhibition in vivo at 90 mg/kg: 59%

## CN1CCC(c2ccc(OC(F)(F)F)c(Nc3ncc4c(n3)-c3c(c(C(N)=O)nn3C)CC4)c2)CC1
[11]
  Papp: 36.8 ×10⁻⁶ cm/s
[1]
  IC50: > 10000 nM
[12]
  solubility: 3800 µg/mL (≈ 7.58 mM)
[13]
  CLint scaled at 1 µM: 603 mL/min/kg
[15]
  IC50: > 10000 nM
[2]
  solubility: 203 µM (≈ 102 µg/mL)
[14]
  CLint scaled at 1 µM: 15.9 mL/min/kg
Caco-2
  Papp: permeable
[16]
  IC50: 6 nM

## CN1CCN(c2ccc(OC(F)(F)F)c(Nc3ncc4c(n3)-c3c(c(C(N)=O)nn3CCCN)CC4)c2)CC1
[11]
  Papp: 4 ×10⁻⁶ cm/s
[1]
  IC50: > 10000 nM
[15]
  IC50: > 10000 nM
A2780
  IC50: 846 nM
[2]
  solubility: 186 µM (≈ 101 µg/mL)
[16]
  IC50: 52 nM

## CN1CCN(CCCNc2ccc(OC(F)(F)F)c(Nc3ncc4c(n3)-c3c(c(C(N)=O)nn3C)CC4)c2)CC1
[1]
  IC50: 1360 nM
A2780
  IC50: 1640 nM
[2]
  solubility: 186 µM (≈ 104 µg/mL)

## CN1CCN(c2ccc(OC(F)(F)F)c(Nc3ncc4c(n3)-c3c(c(C(N)=O)nn3C)CC4)c2)[C@@H](CO)C1
[1]
  IC50: > 10000 nM
A2780
  IC50: 598 nM
[2]
  solubility: 121 µM (≈ 64.4 µg/mL)

## CN1CCN(c2ccc(OC(F)(F)F)c(Nc3ncc4c(n3)-c3c(c(C(N)=O)nn3CCOC3CCCCO3)CC4)c2)CC1 (stereo not given)
[1]
  IC50: > 10000 nM
[2]
  solubility: 35 µM (≈ 21.6 µg/mL)

From ChEMBL document CHEMBL1773059, “NMS-P937, a 4,5-dihydro-1H-pyrazolo[4,3-h]quinazoline derivative as potent and selective Polo-like kinase 1 inhibitor” (Bioorg Med Chem Lett, 2011)
